Measured values reported in patent US11884649B2, “IRE1α inhibitors and uses thereof” (The Regents of the University of California, priority 2020, dated 2024).
Entries after “also recorded” stand apart in the source; their conditions may differ.

Key:
[1] = target: T1, IRE1α* (Homo sapiens, UniProt O75460); assay: In vitro kinase activity assay (IRE1α kinase inhibition); assay type: biochemical
T1 construct: human IRE1α (residues 547-977, IRE1α*) was expressed in SF9 insect cells; His6 (N); made in house; host or cells: Sf9 insect cells (Bac-to-Bac baculovirus)
T1 sequence (O75460 547-977): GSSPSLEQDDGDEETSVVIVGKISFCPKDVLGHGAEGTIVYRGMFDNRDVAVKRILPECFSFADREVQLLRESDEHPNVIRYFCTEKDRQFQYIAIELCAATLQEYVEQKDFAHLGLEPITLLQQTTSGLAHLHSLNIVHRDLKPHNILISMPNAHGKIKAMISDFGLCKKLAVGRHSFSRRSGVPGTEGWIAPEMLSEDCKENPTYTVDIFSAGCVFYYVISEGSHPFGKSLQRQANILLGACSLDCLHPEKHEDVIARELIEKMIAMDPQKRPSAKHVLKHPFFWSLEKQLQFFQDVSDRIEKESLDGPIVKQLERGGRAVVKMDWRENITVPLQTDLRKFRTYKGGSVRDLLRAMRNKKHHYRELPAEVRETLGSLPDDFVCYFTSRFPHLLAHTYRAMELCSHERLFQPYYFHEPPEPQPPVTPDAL
Method: A construct containing the cytosolic kinase and RNase domains of human IRE1α (residues 547-977, IRE1α*) was expressed in SF9 insect cells by using the Bac-to-Bac baculovirus expression system (Invitrogen) with a His6 tag at the N-terminus and purified with a nickel-nitriloacetic acid (Qiagen) column. To generate dP-IRE1α*, we removed basal phosphorylation sites by incubating IRE1α* with λ-PPase (New England Biolabs) at a molar ratio of 5:1 (IRE1α*: λ-PPase) in 50 mM HEPES pH 7.5, 100 mM NaCl, 1 mM MnCl2, 2 mM dithiothreitol (DTT) and 0.01% Brij 35 detergent (v/v) overnight at 4° C. Dephosphorylation was verified through western blotting using a universal phospho-protein detection agent (biotin-pIMAGO (Tymora Analytical Operations, Cat. No.: FL800) and imaged using a streptavidin-linked fluorophore.
In Vitro Kinase Activity Assay
Inhibitors (initial concentration of 10 or 60 μM, three-fold serial dilutions) were incubated with IRE1α* in cleavage buffer (20 mM HEPES, 0.05% Triton X-100 (v/v), 50 mM KCl, 1 mM MgCl2, 1 mM DTT, pH 7.5) for 30 min, followed by incubation with 10 μCi [γ^32P] ATP (3,000 Ci mmol^−1, PerkinElmer) at 23° C. for 3 hours. Samples were then spotted onto glass fiber paper (Easytab-C Glass Fiber Filter Paper, Perkin Elmer) and washed in twice with 0.5% phosphoric acid and autoradiographed using a GE Typhoon FLA 9000 Imager. Blots were quantitated using ImageQuant software. The percent inhibition was quantified by setting the background (no kinase well) as 0 and standardizing to IRE1α* without compound treatment (IRE1α*+DMSO). Dose-response curves were fit using “one-site fit log IC50” parameter using GraphPad Prism analysis software.
Compound Characterization (IC50 IRE1α Kinase Inhibition)

[2] = target: T1, IRE1α*; assay: In vitro Kdimer assay (dimerization affinity from RNase activity); assay type: biochemical; conditions: 50 μM inhibitor
From the text: In order to better understand how to achieve an optimal intermediate RNase activation state through engagement of IRE1α's kinase domain, we first established a quantitative in vitro framework for characterizing how ATP-binding site occupancy influences RNase activity. […] This dimeric state-commonly referred to as the “back-to-back” dimer—is characterized by an extensive interface between the kinase and RNase domains of each IRE1α protomer; this dimeric state can be promoted through mass action as IRE1α concentration is raised. […] Furthermore, ligands that occupy the ATP-binding site of the kinase domain can also stimulate IRE1α's RNase activity by promoting dimer formation. We measured the ability of a purified, recombinant kinase/RNase domain construct of IRE1α—called IRE1α*—to cleave a FRET-quenched XBP1 RNA mini-substrate as a function of IRE1α* concentration, in order to provide a quantitative metric of IRE1α's dimer affinity (Kdimer) (FIG. 1B).
IRE1α* or dPIRE1α* was titrated from either 2 μM or 4 μM in two-fold serial dilutions in assay buffer (20 mM Tris, 50 mM sodium chloride, 1 mM MgCl2, 2 mM DTT, 0.05% Triton X-100 (v/v), pH 7.5) and incubated with 50 μM inhibitor for 30 minutes at room temperature. Assays were initiated by adding 10 μL of XBP1-mini substrate (5′-Alex647-CAUGUCCGCAGCGCAUG-IowaBlack-FQ-3′ (SEQ ID NO:1); IDT) to the wells at a final concentration of 6 μM and a final well volume of 30 μL. Fluorescence was detected on a Perkin Elmer Envision Microplate Reader at excitation and emission wavelengths of 650 nm and 665 nm. Reaction process was monitored real time in 10-second intervals for at least 30 minutes. Initial rates of XBP1-cleavage were determined for each respective IRE1α* of dpIRE1α* concentration. Specific activity was then determined by dividing rate (RFU/s) by the respective IRE1α* of dpIRE1α* used (RFU/s*[IRE1α]). Kdimer values were determined by fitting these values using the non-linear regression ‘one-site total’ binding parameter in GraphPad Prism analysis software.

[3] = target: T1, IRE1α*; assay: In vitro RNase activity assay, XBP1-mini substrate cleavage, inhibitor titrations; assay type: biochemical; conditions: relative to apo IRE1α*
Method: In Vitro RNase Activity Assay Inhibitor Titrations
50 nM IRE1α* was incubated with inhibitor (initial concentration of 10 or 60 μM, three-fold serial dilutions) or DMSO for 30 min in assay buffer (20 mM Tris, 50 mM NaCl, 1 mM MgCl2, 2 mM DTT, 0.05% Triton X-100 (v/v), pH 7.5). Assays were initiated by adding 10 μL of XBP1-mini substrate (5′-Alex647-CAUGUCCGCAGCGCAUG-IowaBlack-FQ-3′ (SEQ ID NO: 1); IDT) to the wells at a final concentration of 200 nM and a final well volume of 30 μL. Fluorescence was detected on a Perkin Elmer Envision Microplate Reader at excitation and emission wavelengths of 650 nm and 665 nm. Dose-response curves were fit using “one-site fit log IC50” parameter using GraphPad Prism analysis software.

[4] = tested on: XBP1 mRNA splicing; assay: XBP1 splicing in ER-stressed INS-1 cells; assay type: cell-based, rat; conditions: brefeldin A (BFA) or thapsigargin (Tg)
Method: RNA Isolation, Quantitative Real-Time PCR, and Primers
INS-1 or isogenic IRE1α-overexpressing INS-1 cells were plated onto Poly-D-Lysine coated tissue culture plate and grown for 48 hrs. Inhibitors or DMSO were added to the media and incubated for 1 hour at 37° C. with 5% CO2 prior to addition of ER stress agents or Dox as indicated. RNA was isolated from whole cells using either QIAGEN RNeasy Mini kits or Trizol (Invitrogen) and reverse transcribed as above to obtain total cDNA. Then, XBP-1 primers were used to amplify an XBP-1 amplicon spanning the 26 nt intron from the cDNA samples in a regular 3-step PCR. Thermal cycles were: 5 min at 95° C., 30 cycles of 30 s at 95° C., 30 s at 60° C., and 1 min at 72° C., followed by 72° C. for 15 min, and hold at 4° C. Primers used for XBP-1 mRNA splicing were as follows: sense primer XBP1.3 S (5′ […]-3′ (SEQ ID NO:2)) and antisense primer XBP1.2AS (5′-[…]-3′ (SEQ ID NO:3)). PCR fragments were then digested by PstI, resolved on 3% agarose gels, stained with EtBr and quantified by densitometry using ImageJ (NIH). For standard mRNA detection, generally […] total RNA was reverse transcribed using the QuantiTect Reverse Transcription Kit (QIAGEN). For qPCR, we used SYBR green (QIAGEN) and StepOnePlus Real-Time PCR System (Applied Biosystems). Thermal cycles were: 5 min at 95° C., 40 cycles of 15 sec at 95° C., 30 sec at 60° C. […]

[5] = tested on: mouse splenocytes; assay: LPS-induced differentiation of mouse splenocytes into plasma cells (flow cytometry, IgM ELISA); assay type: cell-based; conditions: 1 μg/mL LPS, three days, 20 μM-1.25 μM
Method: Therefore, we sought to compare the sensitivity of this process to both KIRAs and PAIRs. To this end, we assessed how KIRA8, KIRA9, and PAIR1 affected the differentiation of lipopolysaccharide (LPS)-treated mouse splenocytes into antibody-secreting plasma cells. Total live number of CD19+ B-cells were assessed and plasma cells were quantified on the basis of B220 downregulation and CD138 expression by flow cytometry (FIGS. 6A-6C, FIG. 24). Concomitantly, secreted IgM was measured in the cell culture supernatants by ELISA (FIG. 6C).
Splenocyte Isolation and Differentiation
Red blood cells were lysed with ammonium chloride potassium buffer. Splenocytes were plated at 2.5×10^5 cells/well in a 96-well round bottom plate in complete media. The splenocytes were treated with or without 1 μg/ml LPS 026:b6 (Sigma). […] The splenocytes were incubated for three days in a 37° C., 5% CO2 humidified chamber before collection and staining for flow cytometry.
Cells from the plasma cell assay were collected in a 96-well plate and washed with PBS followed by staining with LIVE/DEAD Fixable Near-IR Dead Cell Stain kit (Invitrogen). Reagent was reconstituted as per manufacturer's instructions, diluted 1:1000 in PBS, and cells were stained in 100 μL on ice for 20 minutes. The cells were then washed with FACS buffer, PBS (Corning), 2 mM EDTA and 2% heat inactivated fetal bovine serum (Omega Scientific). The cells were then stained with 50 μL antibody cocktail consisting of anti-CD19 (BioLegend), anti-CD45R (BD Pharmingen), and anti-CD138 (BioLegend) in FACS buffer on ice for 15 minutes. Cells were resuspended in FACS buffer and combined with an equal volume of 4% paraformaldehyde with 5000 Countbright Absolute Counting Beads (Thermofisher). Stained cells were analyzed on a Fortessa (Becton Dickinson). Data analysis was performed using FlowJo (v10) software (Treestar Inc.).
Media supernatants from the in vitro plasma cell differentiation assay were measured for secreted IgM by ELISA. […] Wash buffer (PBS with 0.05% Tween-20 (v/v)) was used for all washing steps and blocked with PBS-BB (PBS without Ca^2+/Mg^2+, 1% BSA (w/v), 0.05% Tween-20 (v/v)). Supernatants from LPS stimulated samples were diluted (1:100) and media only samples were diluted (1:10) in PBS-BB. […] ELISA plates were developed with TMB (Sigma) and stopped with 1N sulfuric acid. Absorbance was measured at 450 nm using spectrophotometer (Spectramax M5, Molecular Devices). Sample IgM concentration values were calculated with SoftMaxPro software.

[6] = target: T2, dpIRE1α* (Homo sapiens, UniProt O75460); assay: In vitro Kdimer assay with dephosphorylated construct; assay type: biochemical; conditions: 50 μM inhibitor
T2 construct: human IRE1α (residues 547-977, IRE1α*) was expressed in SF9 insect cells; His6 (N); made in house; host or cells: Sf9 insect cells, then λ-PPase treatment
T2 sequence (O75460 547-977): as above
From the text: In order to better understand how to achieve an optimal intermediate RNase activation state through engagement of IRE1α's kinase domain, we first established a quantitative in vitro framework for characterizing how ATP-binding site occupancy influences RNase activity. […] This dimeric state-commonly referred to as the “back-to-back” dimer—is characterized by an extensive interface between the kinase and RNase domains of each IRE1α protomer; this dimeric state can be promoted through mass action as IRE1α concentration is raised. […] Furthermore, ligands that occupy the ATP-binding site of the kinase domain can also stimulate IRE1α's RNase activity by promoting dimer formation. We measured the ability of a purified, recombinant kinase/RNase domain construct of IRE1α—called IRE1α*—to cleave a FRET-quenched XBP1 RNA mini-substrate as a function of IRE1α* concentration, in order to provide a quantitative metric of IRE1α's dimer affinity (Kdimer) (FIG. 1B). […]
IRE1α* or dPIRE1α* was titrated from either 2 μM or 4 μM in two-fold serial dilutions in assay buffer (20 mM Tris, 50 mM sodium chloride, 1 mM MgCl2, 2 mM DTT, 0.05% Triton X-100 (v/v), pH 7.5) and incubated with 50 μM inhibitor for 30 minutes at room temperature. […] Fluorescence was detected on a Perkin Elmer Envision Microplate Reader at excitation and emission wavelengths of 650 nm and 665 nm. […]

Row | kinase activity of IRE1α* / ATP-binding site occupancy (in words) [1] | RNase activity of IRE1α* (in words) [3] | SMILES | dimerization affinity of IRE1α* / formation of RNase active dimers [2] | spliced XBP1 [4] | IgM secretion [5] | plasma cell (CD138+) differentiation [5] | formation of the RNase active dimer of dpIRE1α* [6]
1 | dose-dependently inhibited | dose-dependently inhibited | N[C@H]1CC[C@H](Nc2nccc(-c3cccnc3Oc3ccc(NS(=O)(=O)CCC(F)(F)F)c(F)c3)n2)CC1 [compound 3, N-(4-(3-(2-((1r,4r)-4-aminocyclohexylamino)pyrimidin-4-yl)pyridin-2-yloxy)-2-fluorophenyl)-3,3,3-trifluoropropane-1-sulfonamide] | completely suppressed the formation of RNase active dimers | – | – | – | –
2 | – | – | Cc1ccc2c(NS(=O)(=O)c3ccccc3Cl)cccc2c1Oc1ncccc1-c1ccnc(N[C@H]2CCCNC2)n1 [KIRA8, reference compound] | unable to form RNase active dimers at any concentration tested | completely suppresses XBP1 splicing; also recorded: almost completely suppressed | reductions in both plasma cell differentiation and IgM secretion in a dose-dependent manner | dose-dependently inhibits B-cell differentiation into plasma cells; also recorded: reductions in both plasma cell differentiation and IgM secretion in a dose-dependent manner | –
3 | – | – | NC(=O)Nc1cc(-c2cccc(F)c2)sc1C(=O)N[C@H]1CCCNC1 [AZD7762] | promotes the formation of the RNase active dimer of IRE1α* | – | – | – | promotes the formation of the RNase active dimer of dpIRE1α*
